According to ChEMBL document CHEMBL5038635, “Discovery of Salidroside-Derivated Glycoside Analogues as Novel Angiogenesis Agents to Treat Diabetic Hind Limb Ischemia” (J Med Chem, 2022):
Activity calls are given as the source filed them. The calls are words filed in the database; no cut-off is given here.

Key:
[1] = test system: C2C12; experiment: Reversal of hyperglycemia-induced VEGF-A protein level reduction in mouse C2C12 cells measured at 30 uM by Western blot analysis; assay type: functional, cell-based
[2] = test system: C2C12; experiment: Angiogenic activity in mouse C2C12 cells assessed as accumulation VEGF-A protein expression at 300 uM by Western blot analysis; assay type: functional, cell-based
[3] = Octanol/Water partition coefficient, log P of the compound by HPLC-UV analysis
[4] = Permeability coefficient across apical to basolateral side in human Caco-2 cells by HPLC-UV analysis
[5] = Permeability coefficient across basolateral to apical side in human Caco-2 cells by HPLC-UV analysis
[6] = test system: C2C12; experiment: Angiogenic activity in mouse C2C12 cells assessed as reversal of hyperglycemia-induced reduction in total cell number at 7.5 uM measured after 24 hrs by EdU-incorporation assay; assay type: functional, cell-based
[7] = test system: C2C12; experiment: Induction of proliferation of hyperglycemia-induced mouse C2C12 cell apoptosis assessed as decrease in Annexin V/PI-positive cells at 15 uM pretreated with compound under hyperglycemia condition for 12 hr followed by hypoxia for 24 hrs; assay type: functional, cell-based; settings: time 36.0 hrs
[8] = test system: C2C12; experiment: Apoptotic rate in hyperglycemia-treated mouse C2C12 cells assessed as late apoptotic cells at 15 uM by AnnexinV-FITC/PI staining based flow cytometric analysis (reference value: 10.44 %); assay type: functional
[9] = test system: C2C12; experiment: Apoptotic rate in hyperglycemia-treated mouse C2C12 cells assessed as viable cells at 15 uM by AnnexinV-FITC/PI staining based flow cytometric analysis (reference value: 81.90 %); assay type: functional; settings: read-out: Activity
[10] = test system: C2C12; experiment: Apoptotic rate in hyperglycemia-treated mouse C2C12 cells assessed as necrotic cells at 30 uM by AnnexinV-FITC/PI staining based flow cytometric analysis (reference value: 0.56 %); assay type: functional
[11] = test system: C2C12; experiment: Upregulation of HGF protein expression in mouse C2C12 cells at 30 uM by Western blot analysis; assay type: functional, cell-based
[12] = test system: C2C12; experiment: Upregulation of […] protein expression in mouse C2C12 cells at 30 uM by Western blot analysis; assay type: functional, cell-based
[13] = test system: C2C12; experiment: Upregulation of IGF protein expression in mouse C2C12 cells at 30 uM by Western blot analysis; assay type: functional, cell-based
[14] = test system: C2C12; experiment: Upregulation of EPO protein expression in mouse C2C12 cells at 30 uM by Western blot analysis; assay type: functional, cell-based
[15] = test system: C2C12; experiment: Upregulation of FGF18 protein expression in mouse C2C12 cells at 30 uM by Western blot analysis; assay type: functional, cell-based
[16] = test system: C2C12; experiment: Upregulation of CXCL17 protein expression in mouse C2C12 cells at 30 uM by Western blot analysis; assay type: functional, cell-based
[17] = test system: C2C12; experiment: Upregulation of FGF1protein expression in mouse C2C12 cells at 30 uM by Western blot analysis; assay type: functional, cell-based
[18] = test system: C2C12; experiment: Reversal of hyperglycemia-induced VEGF-A protein level reduction in mouse C2C12 cells measured at 30 uM by ELISA; assay type: functional, cell-based
[19] = test system: C2C12; experiment: Induction of F-actin polymerization in mouse C2C12 cells at 30 uM pretreated with compound for 12 hr followed by hypoxic condition for 24 hrs by phalloidin staining based confocal microscopy; assay type: functional, cell-based; settings: time 36.0 hrs
[20] = test system: C2C12; experiment: Induction of cell migration in mouse C2C12 cells at 30 uM under hyperglycemic condition incubated for 24 hrs by crystal violet dye based transwell chamber assay; assay type: functional
[21] = test system: C2C12; experiment: Increase in PDGF-BB protein expression level in HIF-1 alpha silenced mouse C2C12 cells at 30 uM by Western blot analysis; assay type: functional, cell-based
[22] = test system: C2C12; experiment: Angiogenesis activity in mouse C2C12 cells with silenced HIF-1alpha assessed increase in cell migration at 30 uM under hyperglycemic condition incubated for 24 hrs by crystal violet dye based transwell chamber assay; assay type: functional
[23] = test system: C2C12; experiment: Apoptotic rate in mouse C2C12 cells with silenced HIF-1alpha assessed as early apoptotic cells at 30 uM by AnnexinV-FITC/PI staining based FACS analysis (reference value: 4.02 %); assay type: functional
[24] = test system: HUVEC; experiment: Angiogenesis activity in human HUVEC cells assessed as increase of cell migration using conditioned medium of mouse C2C12 cells with silenced HIF-1alpha treated at 30 uM under hyperglycemic condition for 12 hrs followed by hypoxia for 24 hrs by crystal violet dye based transwell assay; assay type: functional; settings: time 36.0 hrs
[25] = test system: MOVAS-1; experiment: Induction proliferation of mouse MOVAS-1 cells assessed as increase in number of EdU-positive cells using conditioned medium of mouse C2C12 cells treated at 30 uM under hyperglycemic condition for 12 hrs followed by hypoxia for 24 hrs by EdU-incorporation assay; assay type: functional; settings: time 36 hrs
[26] = test system: MOVAS-1; experiment: Angiogenesis activity in mouse MOVAS-1 cells assessed as suppression of cell migration using conditioned medium of mouse C2C12 cells treated at 30 uM under hyperglycemic condition for 12 hrs followed by hypoxia for 24 hrs by crystal violet dye based transwell assay; assay type: functional; settings: time 36.0 hrs
[27] = test system: HUVEC; experiment: Induction proliferation of human HUVEC cells assessed as increase in number of EdU-positive cells using conditioned medium of mouse C2C12 cells with silenced HIF-1alpha treated at 30 uM under hyperglycemic condition for 12 hrs followed by hypoxia for 24 hrs by EdU-incorporation assay; assay type: functional, cell-based; settings: time 36.0 hrs
[28] = Microsomal stability in rat liver microsomes assessed as compound remaining after 30 min by HPLC analysis; assay type: ADME, Microsome; settings: read-out: Stability
[29] = test system: Mus musculus; experiment: Antidiabetic activity in diabetic HLI C57BL/6 mouse model assessed as effect on blood glucose level at 15 mg/kg administered intramuscular; assay type: functional, organism-based
[30] = test system: Mus musculus; experiment: Antidiabetic activity in diabetic HLI C57BL/6 mouse model assessed as morphological changes at 30 mg/kg administered intramuscularly; assay type: functional, organism-based
[31] = test system: Mus musculus; experiment: Angiogenic activity in diabetic HLI C57BL/6 mouse model assessed as increase in number of alpha-SMA-positive cells at 30 mg/kg, im administered for 21 days followed by surgery by immunofluorescence analysis; assay type: functional, organism-based; settings: time 21.0 day
[32] = test system: Mus musculus; experiment: Angiogenic activity in diabetic HLI C57BL/6 mouse model assessed as VEGF-A protein expression at 30 mg/kg, im administered for 21 days followed by surgery by Western blot analysis; assay type: functional, organism-based; settings: time 21.0 day
[33] = test system: C2C12; experiment: Induction proliferation of mouse C2C12 cells assessed as increase in number of EdU-positive cells at 30 uM under normoglycemic condition by EdU-incorporation assay; assay type: functional, cell-based
[34] = test system: C2C12; experiment: Induction proliferation of mouse C2C12 cells assessed as suppression of apoptotic rate at 30 uM under normoglycemic condition by Annexin V/PI staining based Flowcytometry method; assay type: functional, cell-based
[35] = test system: Mus musculus; experiment: Angiogenesis activity in nondiabetic HLI C57BL/6 mouse model assessed as as increase in blood perfusion recovery at 30 mg/kg, im administered for 14 days; assay type: functional, organism-based; settings: time 14.0 day
[36] = test system: C2C12; experiment: Induction proliferation of mouse C2C12 cells at 30 uM pretreated with compound in hyperglycemia condition for 12 hr followed by hypoxia condition for 24 hrs presence of MeOE2 inhibitor by EdU-incorporation assay; assay type: functional, cell-based; settings: time 36.0 hrs
[37] = test system: C2C12; experiment: Angiogenesis activity in mouse C2C12 cells assessed as decrease in apoptotic rate at 30 uM under hyperglycemia condition presence of MeOE2 inhibitor by Annexin V/PI staining based Flowcytometry method; assay type: functional, cell-based
[38] = test system: C2C12; experiment: Effect on PHD1 mRNA expression in mouse C2C12 cells at 30 uM by qRT-PCR analysis; assay type: functional, cell-based

logP [3]: 0.971
Papp A→B [4]: 1.04 ×10⁻⁶ cm/s
Papp B→A [5]: 1.11 ×10⁻⁶ cm/s
remaining at 0.5 h [28]: 79.4%
Compound: COc1ccc(Cc2cccc(O[C@@H]3O[C@H](CO)[C@@H](O)[C@H](O)[C@H]3O)c2)cc1
Activity [1]: Active
inhibition [2]: Active
Activity [6]: Active
Activity [7]: Active
Activity [8]: 7.61%
viability at 15 µM [9]: 88.9%
Activity [10]: 0.35%
Activity [11]: Active
Activity [12]: Active
Activity [13]: Active
Activity [14]: Active
Activity [15]: Active
Activity [16]: Active
Activity [17]: Active
Activity [18]: Active
Activity [19]: Active
Activity [20]: Active
Activity [21]: inactive
Activity [22]: inactive
Activity [23]: 3.18%
Activity [24]: Active
fold change (FC) [25]: 2
Activity [26]: Active
Activity [27]: Active
Activity [29]: Active
Activity [30]: Active
Activity [31]: Active
Activity [32]: Active
Activity [33]: Active
Activity [34]: Active
Activity [35]: Active
Activity [36]: inactive
Activity [37]: inactive
Activity [38]: inactive
